Assay results taken from patent US20100056524A1, “Compound” (priority 2008, published 2010).
Counter-ions that a name gives are not always drawn. Like-named read-outs stand apart in the source and are kept apart here.

What was measured:
[1] = target: T1, VEG-FR (Homo sapiens, UniProt P17948); test: VEG-FR protein kinase assay; assay type: biochemical; settings: for remaining activity at 10 µM: 10 μM compound; for residual kinase activity VEG-FR: 1 μm compound; for remaining activity at 1 µM: 1 μM compound
T1 construct: All protein kinases were of human origin and encoded full length proteins, unless indicated otherwise; made in house
T1 sequence (P17948 784-1338 limits assumed): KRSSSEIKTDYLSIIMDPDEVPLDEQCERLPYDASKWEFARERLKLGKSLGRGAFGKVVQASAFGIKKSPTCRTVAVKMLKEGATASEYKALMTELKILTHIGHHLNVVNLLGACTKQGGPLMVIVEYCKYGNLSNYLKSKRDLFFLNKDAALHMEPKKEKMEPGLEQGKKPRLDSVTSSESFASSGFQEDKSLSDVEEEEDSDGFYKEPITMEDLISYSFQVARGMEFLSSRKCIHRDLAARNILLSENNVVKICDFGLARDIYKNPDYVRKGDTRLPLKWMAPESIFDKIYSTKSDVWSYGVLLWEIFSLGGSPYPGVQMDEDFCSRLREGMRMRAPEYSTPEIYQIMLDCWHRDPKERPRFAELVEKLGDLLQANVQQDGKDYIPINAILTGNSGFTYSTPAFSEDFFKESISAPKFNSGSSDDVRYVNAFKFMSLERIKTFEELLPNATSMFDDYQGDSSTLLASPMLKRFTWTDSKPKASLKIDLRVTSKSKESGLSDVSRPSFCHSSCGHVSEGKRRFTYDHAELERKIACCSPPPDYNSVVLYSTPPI
Text: (§1) All protein kinases were of human origin and encoded full length proteins, unless indicated otherwise. They were either expressed as glutathione S-transferase (GST) fusion proteins in Escherichia Coli or as hexahistidine (His6)-tagged proteins in insect Sf21 cells. GST fusion proteins were purified by affinity chromatography on glutathione-Sepharose, and His6-tagged proteins on nickel/nitriloacetate-agarose. The procedures for expressing some of the protein kinases used herein have been detailed previously.^8,9 The following sections outline the DNA vectors synthesised and the procedures used to express and purifying protein kinases that have not been reported previously.
(§2) All assays (25.5 μl) were carried out at room temperature (21° C.) and were linear with respect to time and enzyme concentration under the conditions used. Assays were performed for 30 min using Multidrop Micro reagent dispensers (Thermo Electron Corporation, Waltham, Mass. 02454, USA) in a 96-well format. The concentration of magnesium acetate in the assays was 10 mM and the [γ-33P] ATP (800 cpm/pmol) was used at 5, 20 or 50 μM as indicated, in order to be at or below the Km for ATP for each enzyme. Protein kinases assayed at 5 μM ATP were: —ERK1, ERK8, PKBα, MARK3, Aurora C. Protein kinases assayed at 20 μM ATP were: —JNK1, PDK1, CHK1, CHK2, CDK2 and Aurora B. Protein kinases assayed at 50 μM ATP were: —MNK2, IKKepsilon and TBK1.
(§3) The assays were initiated with MgATP, stopped by addition of 5 μl of 0.5 M orthophosphoric acid and spotted on to P81 filterplates using a unifilter harvester (PerkinElmer, Boston, Mass. 02118, USA). The IC50 values of inhibitors were determined after carrying out assays at 10 different concentrations of each compound.
(§4) Unless stated otherwise, enzymes were diluted in 50 mM Tris/HCl pH 7.5, 0.1 mM EGTA, 1 mg/ml BSA, 0.1% (v/v) 2-mercaptoethanol and assayed in 50 mM Tris/HCl pH 7.5, 0.1 mM EGTA, 0.1% (v/v) 2-mercaptoethanol.

[2] = target: T2, MSK1 (Homo sapiens, UniProt O75582); test: MSK1 protein kinase assay; assay type: biochemical; settings: for remaining activity at 10 µM: 10 μM compound; for residual kinase activity MSK1: 1 μm compound; for remaining activity at 1 µM: 1 μM compound
T2 construct: All protein kinases were of human origin and encoded full length proteins, unless indicated otherwise; made in house
T2 sequence (O75582 whole entry): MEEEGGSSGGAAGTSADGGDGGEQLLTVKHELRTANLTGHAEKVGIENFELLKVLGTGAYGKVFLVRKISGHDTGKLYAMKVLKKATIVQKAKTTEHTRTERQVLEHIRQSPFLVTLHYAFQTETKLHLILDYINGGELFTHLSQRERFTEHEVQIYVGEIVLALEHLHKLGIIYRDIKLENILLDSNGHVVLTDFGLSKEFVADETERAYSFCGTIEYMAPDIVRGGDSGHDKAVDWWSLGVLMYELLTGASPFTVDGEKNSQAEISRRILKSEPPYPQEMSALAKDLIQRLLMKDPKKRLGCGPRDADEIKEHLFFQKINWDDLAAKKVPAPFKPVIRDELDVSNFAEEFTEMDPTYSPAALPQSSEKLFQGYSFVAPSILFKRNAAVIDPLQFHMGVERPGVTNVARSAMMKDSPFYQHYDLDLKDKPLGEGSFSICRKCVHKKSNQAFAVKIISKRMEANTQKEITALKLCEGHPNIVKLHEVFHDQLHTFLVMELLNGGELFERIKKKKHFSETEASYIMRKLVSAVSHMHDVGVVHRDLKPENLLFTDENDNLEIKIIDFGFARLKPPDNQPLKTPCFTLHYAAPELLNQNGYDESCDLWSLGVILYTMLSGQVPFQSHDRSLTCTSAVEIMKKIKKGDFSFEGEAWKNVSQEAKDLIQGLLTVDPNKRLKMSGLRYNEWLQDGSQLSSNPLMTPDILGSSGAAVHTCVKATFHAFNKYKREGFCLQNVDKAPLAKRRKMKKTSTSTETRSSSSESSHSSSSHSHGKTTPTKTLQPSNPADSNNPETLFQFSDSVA
Text: as §1, §2, §3, §4

[3] = target: T3, PKCa (Homo sapiens, UniProt P17252); test: PKCa protein kinase assay; assay type: biochemical; settings: for remaining activity at 10 µM: 10 μM compound; for residual kinase activity PKCa: 1 μm compound; for remaining activity at 1 µM: 1 μM compound
T3 construct: All protein kinases were of human origin and encoded full length proteins, unless indicated otherwise; made in house
Text: as §1, §2, §3, §4

[4] = target: T4, HIPK2 (Homo sapiens, UniProt Q9H2X6); test: HIPK2 protein kinase assay; assay type: biochemical; settings: for remaining activity at 10 µM: 10 μM compound; for residual kinase activity HIPK2: 1 μm compound; for remaining activity at 1 µM: 1 μM compound
T4 construct: All protein kinases were of human origin and encoded full length proteins, unless indicated otherwise; made in house
T4 sequence (Q9H2X6 165-564 limits assumed): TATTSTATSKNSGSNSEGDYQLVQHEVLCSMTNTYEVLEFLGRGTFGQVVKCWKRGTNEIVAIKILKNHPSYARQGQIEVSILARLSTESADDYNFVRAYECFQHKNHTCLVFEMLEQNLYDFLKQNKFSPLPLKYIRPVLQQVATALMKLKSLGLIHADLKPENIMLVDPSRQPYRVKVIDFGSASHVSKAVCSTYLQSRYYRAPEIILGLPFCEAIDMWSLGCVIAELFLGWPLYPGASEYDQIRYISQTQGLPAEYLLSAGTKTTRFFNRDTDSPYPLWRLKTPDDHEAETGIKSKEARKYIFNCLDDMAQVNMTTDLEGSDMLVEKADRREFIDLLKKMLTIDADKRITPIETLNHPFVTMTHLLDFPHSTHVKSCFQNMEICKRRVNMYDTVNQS
Text: as §1, §2, §3, §4

[5] = tested on: CK2; test: CK2 protein kinase assay; assay type: biochemical, human; settings: for residual kinase activity: CK2
Text: as §1, §2, §3, §4

[6] = target: T5, EF2K (Homo sapiens, UniProt O00418); test: EF2K protein kinase assay; assay type: biochemical; settings: for remaining activity at 10 µM: 10 μM compound; for residual kinase activity EF2K: 1 μm compound; for remaining activity at 1 µM: 1 μM compound
T5 construct: All protein kinases were of human origin and encoded full length proteins, unless indicated otherwise; made in house
Text: as §1, §2, §3, §4

[7] = target: T6, CHK2 (Homo sapiens, UniProt O96017); test: CHK2 protein kinase assay; assay type: biochemical; settings: for remaining activity at 10 µM: 10 μM compound; for residual kinase activity CHK2: 1 μm compound; for remaining activity at 1 µM: 1 μM compound
T6 construct: The following proteins were expressed in E. coli: —CHK2[5-543]; GST; made in house; host or cells: E. coli
T6 sequence (O96017 5-543): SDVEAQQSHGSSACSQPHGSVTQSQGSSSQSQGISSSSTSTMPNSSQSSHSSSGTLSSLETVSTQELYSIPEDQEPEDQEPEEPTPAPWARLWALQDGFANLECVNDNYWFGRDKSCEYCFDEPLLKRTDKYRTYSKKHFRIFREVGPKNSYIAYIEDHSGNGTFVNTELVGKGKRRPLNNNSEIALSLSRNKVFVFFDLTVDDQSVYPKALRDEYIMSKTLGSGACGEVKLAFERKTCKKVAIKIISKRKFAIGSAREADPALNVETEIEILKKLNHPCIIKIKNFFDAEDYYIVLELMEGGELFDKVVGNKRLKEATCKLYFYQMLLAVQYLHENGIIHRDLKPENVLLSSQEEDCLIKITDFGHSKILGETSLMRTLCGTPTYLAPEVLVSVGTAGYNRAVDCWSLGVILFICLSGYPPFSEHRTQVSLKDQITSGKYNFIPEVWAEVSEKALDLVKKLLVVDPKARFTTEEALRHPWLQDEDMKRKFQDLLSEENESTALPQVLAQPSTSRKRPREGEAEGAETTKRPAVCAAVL
Text: as §1
The following proteins were expressed in E. coli: —CHK2[5-543], cyclin-dependent protein kinase 2 (CDK2), MAP kinase-interacting kinase 2 (MNK2), extra-cellular signal-regulated kinase 1 (ERK1).
as §2, §3, §4

[8] = target: T7, p38s MAPK (Homo sapiens, UniProt O15264); test: p38s MAPK protein kinase assay; assay type: biochemical; settings: for remaining activity at 10 µM: 10 μM compound; for residual kinase activity p38s MAPK: 1 μm compound; for remaining activity at 1 µM: 1 μM compound
T7 construct: All protein kinases were of human origin and encoded full length proteins, unless indicated otherwise; made in house
T7 sequence (O15264 1-365): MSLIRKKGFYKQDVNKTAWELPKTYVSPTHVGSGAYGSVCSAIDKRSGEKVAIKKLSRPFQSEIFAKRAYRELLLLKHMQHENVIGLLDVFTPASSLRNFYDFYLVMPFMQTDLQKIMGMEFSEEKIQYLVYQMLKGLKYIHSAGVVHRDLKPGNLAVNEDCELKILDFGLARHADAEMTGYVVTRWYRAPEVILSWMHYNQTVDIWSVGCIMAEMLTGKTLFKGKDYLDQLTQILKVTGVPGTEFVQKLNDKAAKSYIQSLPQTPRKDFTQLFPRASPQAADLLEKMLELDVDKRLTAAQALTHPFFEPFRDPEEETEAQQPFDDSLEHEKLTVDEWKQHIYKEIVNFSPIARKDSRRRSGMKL
Text: as §1, §2, §3, §4

[9] = read-out: residual kinase activity VEG-FR
[10] = read-out: residual kinase activity MSK1
[11] = read-out: residual kinase activity PKCa
[12] = read-out: residual kinase activity HIPK2
[13] = read-out: residual kinase activity EF2K
[14] = read-out: residual kinase activity CHK2
[15] = read-out: residual kinase activity p38s MAPK
[16] = VEG-FR, read-out: residual kinase activity
[17] = MSK1, read-out: residual kinase activity
[18] = PKCa, read-out: residual kinase activity
[19] = HIPK2, read-out: residual kinase activity
[20] = EF2K, read-out: residual kinase activity
[21] = CHK2, 20 μM ATP, read-out: residual kinase activity
[22] = p38s MAPK, read-out: residual kinase activity

Row | Compound | remaining activity at 10 µM [1, 9] | residual kinase activity VEG-FR [1] | remaining activity at 10 µM [2, 10] | residual kinase activity MSK1 [2] | remaining activity at 1 µM [1, 16] | remaining activity at 10 µM [1, 16] | remaining activity at 1 µM [2, 17] | remaining activity at 10 µM [2, 17] | remaining activity at 1 µM [3, 18] | remaining activity at 10 µM [3, 18] | remaining activity at 1 µM [4, 19] | remaining activity at 10 µM [4, 19] | residual kinase activity ([5]; 1 μM compound) | residual kinase activity ([5]; 10 μM compound) | remaining activity at 1 µM [6, 20] | remaining activity at 10 µM [6, 20] | remaining activity at 1 µM [7, 21] | remaining activity at 10 µM [7, 21] | remaining activity at 1 µM [8, 22] | remaining activity at 10 µM [8, 22] | further results
1 | O=C(NCCCNc1nc(Nc2cccc(F)c2)ncc1Br)C1CCC1 [Compound A, cyclobutanecarboxylic acid {3-[5-bromo-2-(3-fluoro-phenylamino)-pyrimidin-4-ylamino]-propyl}-amide, reference compound] | 4% | 4% | 24% | 62% | – | – | – | – | – | – | – | – | – | – | – | – | – | – | – | – | remaining activity at 10 µM [3, 11]: 49%; residual kinase activity PKCa [3]: 94%; remaining activity at 10 µM [4, 12]: 12%; residual kinase activity HIPK2 [4]: 58%; residual kinase activity CK2 ([5]; 10 μM compound): 44%; residual kinase activity CK2 ([5]; 1 μm compound): 77%; remaining activity at 10 µM [6, 13]: 88%; residual kinase activity EF2K [6]: 96%; remaining activity at 10 µM [7, 14]: 12%; residual kinase activity CHK2 [7]: 13%; remaining activity at 10 µM [8, 15]: 15%; residual kinase activity p38s MAPK [8]: 55%
2 | O=C(NCCCNc1nc(Nc2cccc(F)c2)ncc1C1CC1)C1CCC1 [Example 23, Cyclobutanecarboxylic acid {3-[5-cyclopropyl-2-(3-fluoro-phenylamino)-pyrimidin-4-ylamino]-propyl}-amide] | 27% | 81% | 34% | 74% | 81% | 27% | 74% | 34% | 81% | 87% | 59% | 26% | 111% | 107% | 105% | 125% | 50% | 11% | 77% | 72% | remaining activity at 10 µM [3, 11]: 87%; residual kinase activity PKCa [3]: 81%; remaining activity at 10 µM [4, 12]: 26%; residual kinase activity HIPK2 [4]: 59%; residual kinase activity CK2 ([5]; 10 μM compound): 107%; residual kinase activity CK2 ([5]; 1 μm compound): 111%; remaining activity at 10 µM [6, 13]: 125%; residual kinase activity EF2K [6]: 105%; remaining activity at 10 µM [7, 14]: 11%; residual kinase activity CHK2 [7]: 50%; remaining activity at 10 µM [8, 15]: 72%; residual kinase activity p38s MAPK [8]: 77%
3 | O=C(NCCCNc1nc(Nc2cccc(N3CCCC3=O)c2)ncc1C1CC1)c1cccs1 [Example 47, Thiophene-2-carboxylic acid (3-{5-cyclopropyl-2-[3-(2-oxo-pyrrolidin-1-yl)-phenylamino]-pyrimidin-4-ylamino}-propyl)-amide. Hydrochloride salt] | – | – | – | – | 12% | 34% | 61% | 54% | 83% | 69% | 88% | 67% | 80% | 78% | 105% | 104% | 71% | 28% | 84% | 84% | –
4 | O=C(NCCCNc1nc(Nc2cccnc2)ncc1C1CC1)c1cccs1 [Example 50, Thiophene-2-carboxylic acid {3-[5-cyclopropyl-2-(pyridin-3-ylamino)-pyrimidin-4-ylamino]-propyl}-amide] | – | – | – | – | 78% | 20% | 77% | 70% | 85% | 70% | 83% | 54% | 72% | 80% | 108% | 101% | 52% | 16% | 79% | 67% | –
